From ChEMBL document CHEMBL2074509, “Uptake and efflux of the peptidic delta-opioid receptor agonist” (Neurosci Lett, 2001)

Biological target: ATP-dependent translocase ABCB1 (Mus musculus, UniProt P21447)
Assay: TP_TRANSPORTER: in situ brain perfusion in mdr1a(-/-) mouse
Format: functional, organism-based
Details: in vivo

Chain of ATP-dependent translocase ABCB1 (P21447 whole entry, the tested form may be a part): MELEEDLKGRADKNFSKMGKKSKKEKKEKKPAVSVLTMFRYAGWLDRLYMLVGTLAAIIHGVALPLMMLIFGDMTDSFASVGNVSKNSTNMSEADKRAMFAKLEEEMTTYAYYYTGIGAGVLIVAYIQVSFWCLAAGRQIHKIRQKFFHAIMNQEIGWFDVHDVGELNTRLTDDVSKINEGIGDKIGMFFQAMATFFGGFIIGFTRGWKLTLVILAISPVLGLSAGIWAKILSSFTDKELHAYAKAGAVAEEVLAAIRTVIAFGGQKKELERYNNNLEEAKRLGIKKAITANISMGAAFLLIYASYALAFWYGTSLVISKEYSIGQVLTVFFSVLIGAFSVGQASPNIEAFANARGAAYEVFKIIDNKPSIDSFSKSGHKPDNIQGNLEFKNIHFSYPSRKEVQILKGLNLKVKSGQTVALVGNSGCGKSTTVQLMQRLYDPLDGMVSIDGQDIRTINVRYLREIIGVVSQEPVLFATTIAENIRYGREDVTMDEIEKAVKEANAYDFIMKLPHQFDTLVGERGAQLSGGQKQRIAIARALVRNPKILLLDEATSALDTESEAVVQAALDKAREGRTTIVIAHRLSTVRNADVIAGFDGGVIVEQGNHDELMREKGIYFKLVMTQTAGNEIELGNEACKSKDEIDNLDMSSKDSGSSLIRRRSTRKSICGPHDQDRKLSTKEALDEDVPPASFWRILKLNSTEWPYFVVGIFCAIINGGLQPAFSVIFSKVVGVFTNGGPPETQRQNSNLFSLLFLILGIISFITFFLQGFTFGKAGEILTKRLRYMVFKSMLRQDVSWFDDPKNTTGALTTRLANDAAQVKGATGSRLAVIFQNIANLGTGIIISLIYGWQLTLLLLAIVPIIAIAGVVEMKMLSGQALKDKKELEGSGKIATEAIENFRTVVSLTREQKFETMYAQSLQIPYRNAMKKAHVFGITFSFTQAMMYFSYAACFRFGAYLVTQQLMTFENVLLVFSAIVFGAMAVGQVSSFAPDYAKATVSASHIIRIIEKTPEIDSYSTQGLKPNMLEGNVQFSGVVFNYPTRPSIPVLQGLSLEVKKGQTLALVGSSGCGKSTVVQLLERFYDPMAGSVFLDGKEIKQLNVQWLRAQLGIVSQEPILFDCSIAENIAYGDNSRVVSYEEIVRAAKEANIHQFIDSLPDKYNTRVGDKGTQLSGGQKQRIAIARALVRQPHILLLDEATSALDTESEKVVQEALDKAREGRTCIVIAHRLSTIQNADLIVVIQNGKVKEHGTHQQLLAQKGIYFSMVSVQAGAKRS

For `CC1(C)SSC(C)(C)[C@@H](NC(=O)[C@@H](N)Cc2ccc(O)cc2)C(=O)NCC(=O)N[C@@H](Cc2ccccc2)C(=O)N[C@H]1C(=O)O`, the Activity was “substrate [+]”.
